Laboratory results: patent US9452159B2, “6-aminopyridine-3-ol derivatives or pharmaceutically acceptable salts thereof, and pharmaceutical composition containing same as active ingredients for preventing or treating diseases caused by angiogenesis” (Research Cooperation Foundation of Yeungnam University, priority 2011, dated 2016)
Where two headings read alike, the source gives them in different places.

Legend:
[1] = system: chorioallantoic membrane (CAM); test: Chorioallantoic membrane (CAM) assay, VEGF-derived angiogenesis; assay type: in vivo, chick; conditions: for angiogenesis inhibiting effects: VEGF-treated CAM, summary of Table 1, 6a compared with SU4312, batimastat and α-tocopherol
Description: To examine angiogenesis inhibiting effects in vivo, CAM assay was performed (Nguyen Metal., Microvascular Res., 47, pp 31-40, 1994). Hen's fertile eggs were incubated at a temperature of 37° C. and in relative humidity 55%, and on the 10th day after the incubation, an air sac site was punched by using a hypodermic needle (Greencross Medical Science Corp, Korea) to form a first hole, and then, a planar site of the fertile egg where a window was to be formed was punched to form a second hole. Air was removed through the first pore of the air sac site to allow the chorioallantoic membrane (CAM) to be separated from the shell of the fertile egg, and this site was cut by using a grinding wheel (Multipro 395JA, Dremel, Mexico) to form a window. […] Through the window, the filter disc was placed on blood vessels, which were then treated with the compounds each dissolved in dimethylsulfoxide (DMSO) and diluted with phosphate buffer solution (PBS) at various concentrations. 3 days after the treatment with the compounds, the CAM site with the filter disc placed thereon was separated, and then washed with a phosphate buffer solution, and an image thereof was obtained by using a stereomicroscope (Stemi SV6 stereomicroscope, Carl Zeiss, Germany) and image-Pro Plus software (Media Cybernetics; Silver Spring, Md., U.S.A.) to count the number of blood vessel branches, and the obtained results were assayed.

A549 lung cancer cells = test: Oncogenesis-derived angiogenesis and tumor growth on CAM inoculated with A549 lung cancer cells; assay type: in vivo, chick; conditions: A549 cells 1.5×10^6 cell/CAM, various concentrations, five days after inoculation; FIG. 4
Description: Hen's fertile eggs were incubated, and on the 9th day, a window was formed in the same manner as in Experimental Example 1, and instead of a disc, A549 lung cancer cells were mixed with matrigel at a ratio of 1:1, and then the cells were treated with Compounds 6a and 6i and inoculated at a concentration of 1.5×10^6 cell/CAM. Five days after the inoculation, the CAM site where tumors developed was separated and washed with a phosphate buffer solution, and then, an image thereof was obtained by using a stereomicroscope (Stemi SV6 stereomicroscope, Carl Zeiss, Germany) and Image-Pro Plus software (Media Cybernetics; Silver Spring, Md., U.S.A.) to count the number of blood vessel branches, and the results were assayed.

HUVEC cells = test: VEGF-derived ROS scavenging ability (DCF-DA fluorescence); assay type: cell-based; conditions: HUVEC pretreated 3 hours, then VEGF 15 minutes, compared to VEGF, FIG. 5
Description: DCF-DA (2′,7′-dichlorofluorescein diacetate) was used to measure a VEGF-derived ROS scavenging ability in HUVEC cells. When ROS exists in cells, DCF-DA is oxidized into fluorescent DCF, thereby emitting green fluorescent light. 1×10^5 concentration of HUVEC was spread onto a 0.2% gelatin coated 8-well plate, and then incubated for 24 hours. The cells were pretreated with Compounds 6a or 6i for 3 hours and then, treated with VEGF for 15 minutes, and then, washed three times with PBS (pH 7.4), and then, 10 μM of DCF-DA was added to EBM-2 medium, which was then placed in dark condition for 30 minutes. Then, the cells were washed three times with PBS, and a degree of intracellular fluorescence was measured by using a fluorescent microscope.

[2] = Gallus gallus, 72 h, VEGF (50 ng/CAM) + 3.0 ng/CAM, 1.0 μM, 3 days after treatment, read-out: Inhibition ratio
[3] = VEGF (50 ng/CAM) + 3.0 ng/CAM, 1.0 μM, 3 days after treatment
[4] = VEGF (50 ng/CAM) + 3.0 ng/CAM, 0.7 μM, 3 days after treatment
[5] = VEGF (50 ng/CAM) + 100 ng/CAM, 23 μM, 3 days after treatment
[6] = Gallus gallus, 72 h, VEGF (50 ng/CAM) + 3.0 ng/CAM, 1.3 μM, 3 days after treatment, read-out: Inhibition ratio
[7] = VEGF (50 ng/CAM) + 3.0 ng/CAM, 1.3 μM, 3 days after treatment
[8] = Gallus gallus, 72 h, VEGF (50 ng/CAM) + 3.0 ng/CAM, 1.1 μM, 3 days after treatment, read-out: Inhibition ratio
[9] = VEGF (50 ng/CAM) + 3.0 ng/CAM, 1.1 μM, 3 days after treatment
[10] = Gallus gallus, 72 h, VEGF (50 ng/CAM) + 2.0 ng/CAM, 1.0 μM, 3 days after treatment, read-out: Inhibition ratio
[11] = VEGF (50 ng/CAM) + 2.0 ng/CAM, 1.0 μM, 3 days after treatment
[12] = VEGF (50 ng/CAM) + 1.0 μg/CAM, 378 μM, 3 days after treatment

Br.Cc1nc(Nc2ccccc2)c(C)c(C)c1O [Compound 6g-HBr, 2,4,5-trimethyl-6-(phenylamino)pyridin-3-ol hydrobromide]
inhibition in vivo at 1 µM [1, 2]: 55 ± 10.6% | Number of blood vessel branches/main blood vessel [1, 3]: 28.6 ± 3.9^8

Cc1nc(NCCCO)c(C)c(C)c1O [Compound 6d-1, 6-((3-hydroxypropyl)amino)-2,4,5-trimethylpyridin-3-ol]
inhibition in vivo at 1.4 µM ([1]; Gallus gallus, 72 h, VEGF (50 ng/CAM) + 3.0 ng/CAM, 1.4 μM, 3 days after treatment, read-out: Inhibition ratio): 46.3 ± 12% | Number of blood vessel branches/main blood vessel ([1]; VEGF (50 ng/CAM) + 3.0 ng/CAM, 1.4 μM, 3 days after treatment): 27.8 ± 2.3^8

Cc1c(C)c2c(c(C)c1O)CC[C@@](C)(CCC[C@H](C)CCC[C@H](C)CCCC(C)C)O2 [α-Tocopherol, reference compound]
Inhibition ratio [1, 4]: 45.1 ± 9.3^8 | Number of blood vessel branches/main blood vessel [1, 4]: 32.3 ± 3.5 | Inhibition ratio [1, 5]: 64.4 ± 14.2^8 | Number of blood vessel branches/main blood vessel [1, 5]: 24.3 ± 2.7^8

Cc1nc(NCCCOc2nc(C)c(O)c(C)c2C)c(C)c(C)c1O [Compound 6d-2, 6-(3-((5-hydroxy-3,4,6-trimethylpyridin-2-yl)amino)propoxy)-2,4,5-trimethylpyridin-3-ol]
inhibition in vivo at 1 µM ([1]; Gallus gallus, 72 h, VEGF (50 ng/CAM) + 3.5 ng/CAM, 1.0 μM, 3 days after treatment, read-out: Inhibition ratio): 67.3 ± 13.9% | Number of blood vessel branches/main blood vessel ([1]; VEGF (50 ng/CAM) + 3.5 ng/CAM, 1.0 μM, 3 days after treatment): 26.2 ± 4.4^8 | angiogenesis inhibiting effects [1]: excellent angiogenesis inhibiting effects

Cc1nc(N(c2ccccc2)c2ccccc2)c(C)c(C)c1O [Compound 6l, 6-(diphenylamino)-2,4,5-trimethylpyridin-3-ol]
inhibition in vivo at 1 µM [1, 2]: 65.4 ± 14.6% | Number of blood vessel branches/main blood vessel [1, 3]: 26.8 ± 4.6^8 | angiogenesis inhibiting effects [1]: excellent angiogenesis inhibiting effects

Cc1nc(Nc2ccc([N+](=O)[O-])cc2)c(C)c(C)c1O [Compound 6i, 2,4,5-trimethyl-6-((4-nitrophenyl)amino)pyridin-3-ol]
inhibition in vivo at 1 µM [1, 2]: 74.9 ± 4.9% | IC50 ([1]; Gallus gallus, CAM treated with various concentrations, FIG. 3, read-out: IC50 with respect to angiogenesis inhibition): 1.8 nM | Number of blood vessel branches/main blood vessel [1, 3]: 26.3 ± 1.6^8 | oncogenesis-derived angiogenesis (A549 lung cancer cells): inhibited | tumor growth (A549 lung cancer cells): inhibited | degree of intracellular fluorescence (VEGF-derived ROS) (HUVEC cells): substantial decrease

Cc1nc(Nc2ccccc2)c(C)c(C)c1O [Compound 6g, 2,4,5-trimethyl-6-(phenylamino)pyridin-3-ol]
inhibition in vivo at 1.3 µM [1, 6]: 69.4 ± 5.7% | Number of blood vessel branches/main blood vessel [1, 7]: 23.3 ± 1.1^8 | angiogenesis inhibiting effects [1]: excellent angiogenesis inhibiting effects

CNC(=O)[C@H](Cc1ccccc1)NC(=O)[C@H](CC(C)C)[C@H](CSc1cccs1)C(=O)NO [Batimastat, reference compound]
inhibition in vivo at 200 µM ([1]; Gallus gallus, 72 h, VEGF (50 ng/CAM) + 1.0 μg/CAM, 200 μM, 3 days after treatment, read-out: Inhibition ratio): 78.4 ± 7.4% | Number of blood vessel branches/main blood vessel ([1]; VEGF (50 ng/CAM) + 1.0 μg/CAM, 200 μM, 3 days after treatment): 19.9 ± 2.87^8

Cc1nc(Nc2ccccc2C(C)C)c(C)c(C)c1O [Compound 6h, 6-((2-isopropylphenyl)amino)-2,4,5-trimethylpyridin-3-ol]
inhibition in vivo at 1.1 µM [1, 8]: 55.3 ± 20.3% | Number of blood vessel branches/main blood vessel [1, 9]: 28.4 ± 2.7^8

CCCCCCCCCCCCCCCCNc1nc(C)c(O)c(C)c1C [Compound 6c, 6-(hexadecylamino)-2,4,5-trimethylpyridin-3-ol]
inhibition in vivo at 0.8 µM ([1]; Gallus gallus, 72 h, VEGF (50 ng/CAM) + 3.0 ng/CAM, 0.8 μM, 3 days after treatment, read-out: Inhibition ratio): 30.1 ± 20% | Number of blood vessel branches/main blood vessel ([1]; VEGF (50 ng/CAM) + 3.0 ng/CAM, 0.8 μM, 3 days after treatment): 30.8 ± 3.8^8

Cc1nc(N2CCOCC2)c(C)c(C)c1O [Compound 6o, 2,4,5-trimethyl-6-morpholinopyridin-3-ol]
inhibition in vivo at 1 µM [1, 10]: 59 ± 11% | Number of blood vessel branches/main blood vessel [1, 11]: 28.8 ± 3.7^8

Cc1nc(-n2cccc2)c(C)c(C)c1O [Compound 6p, 2,4,5-trimethyl-6-(1H-pyrrol-1-yl)pyridin-3-ol]
inhibition in vivo at 1 µM [1, 10]: 44 ± 17.2% | Number of blood vessel branches/main blood vessel [1, 11]: 33.6 ± 5.5^8

Cc1nc(Nc2ccc3c(c2)OCO3)c(C)c(C)c1O [Compound 6k, 6-(benzo[d][1,3]dioxol-5-ylamino)-2,4,5-trimethylpyridin-3-ol]
inhibition in vivo at 1.1 µM [1, 8]: 62.4 ± 11.6% | Number of blood vessel branches/main blood vessel [1, 9]: 25.8 ± 4.3^8 | angiogenesis inhibiting effects [1]: excellent angiogenesis inhibiting effects

Cc1nc(N2CCCC2)c(C)c(C)c1O [Compound 6m, 2,4,5-trimethyl-6-(pyrrolidin-1-yl)pyridin-3-ol]
inhibition in vivo at 1 µM [1, 10]: 60.5 ± 12.7% | Number of blood vessel branches/main blood vessel [1, 11]: 27.6 ± 4.2^8 | angiogenesis inhibiting effects [1]: excellent angiogenesis inhibiting effects

Cc1nc(Nc2ccc(Br)cc2)c(C)c(C)c1O [Compound 6j, 6-((4-bromophenyl)amino)-2,4,5-trimethylpyridin-3-ol]
inhibition in vivo at 1 µM [1, 2]: 61.7 ± 7.7% | Number of blood vessel branches/main blood vessel [1, 3]: 30.7 ± 2.6^8

Cc1nc(NC2CCCCC2)c(C)c(C)c1O [Compound 6e, 6-(cyclohexylamino)-2,4,5-trimethylpyridin-3-ol]
inhibition in vivo at 1.3 µM [1, 6]: 36.8 ± 10.7% | Number of blood vessel branches/main blood vessel [1, 7]: 35.3 ± 4.0^8

Cc1nc(NCc2ccccc2)c(C)c(C)c1O [Compound 6f, 6-(benzylamino)-2,4,5-trimethylpyridin-3-ol]
inhibition in vivo at 1.2 µM ([1]; Gallus gallus, 72 h, VEGF (50 ng/CAM) + 3.0 ng/CAM, 1.2 μM, 3 days after treatment, read-out: Inhibition ratio): 56.7 ± 16.8% | Number of blood vessel branches/main blood vessel ([1]; VEGF (50 ng/CAM) + 3.0 ng/CAM, 1.2 μM, 3 days after treatment): 25.8 ± 3.2^8

Cc1nc(N2CCN(C)CC2)c(C)c(C)c1O [Compound 6n, 2,4,5-trimethyl-6-(4-methylpiperazin-1-yl)pyridin-3-ol]
inhibition in vivo at 1 µM [1, 10]: 24.7 ± 21.3% | Number of blood vessel branches/main blood vessel [1, 11]: 39.8 ± 6.8^8

CN(C)c1ccc(/C=C2\C(=O)Nc3ccccc32)cc1 [SU4312, reference compound]
Inhibition ratio [1, 12]: 74.6 ± 12.1^8 | Number of blood vessel branches/main blood vessel [1, 12]: 24 ± 4.6^8

Cc1nc(N(C)c2ccccn2)c(C)c(C)c1O [Compound 6q, 2,4,5-trimethyl-6-(methyl(pyridin-2-yl)amino)pyridin-3-ol]
inhibition in vivo at 1 µM ([1]; Gallus gallus, 72 h, VEGF (50 ng/CAM) + 2.4 ng/CAM, 1.0 μM, 3 days after treatment, read-out: Inhibition ratio): 42.2 ± 21.7% | Number of blood vessel branches/main blood vessel ([1]; VEGF (50 ng/CAM) + 2.4 ng/CAM, 1.0 μM, 3 days after treatment): 34.2 ± 6.9^8

CCCCCCNc1nc(C)c(O)c(C)c1C [Compound 6b, 6-(hexylamino)-2,4,5-trimethylpyridin-3-ol]
inhibition in vivo at 1.3 µM [1, 6]: 53.7 ± 10.3% | Number of blood vessel branches/main blood vessel [1, 7]: 26.3 ± 2.0^8
